Results as given in patent US8901118B2, “Compounds and methods for kinase modulation, and indications therefor” (Plexxikon Inc., priority 2010, dated 2014).

Columns and labels:
CYP1A2 = molecular target: T1, CYP1A2 (Homo sapiens, UniProt P05177); assay: CYP1A2 inhibition (fluorescent substrate CEC); format: in vitro ADME; settings: read-out: Cyp IC50 1A2
T1 sequence (P05177 1-516): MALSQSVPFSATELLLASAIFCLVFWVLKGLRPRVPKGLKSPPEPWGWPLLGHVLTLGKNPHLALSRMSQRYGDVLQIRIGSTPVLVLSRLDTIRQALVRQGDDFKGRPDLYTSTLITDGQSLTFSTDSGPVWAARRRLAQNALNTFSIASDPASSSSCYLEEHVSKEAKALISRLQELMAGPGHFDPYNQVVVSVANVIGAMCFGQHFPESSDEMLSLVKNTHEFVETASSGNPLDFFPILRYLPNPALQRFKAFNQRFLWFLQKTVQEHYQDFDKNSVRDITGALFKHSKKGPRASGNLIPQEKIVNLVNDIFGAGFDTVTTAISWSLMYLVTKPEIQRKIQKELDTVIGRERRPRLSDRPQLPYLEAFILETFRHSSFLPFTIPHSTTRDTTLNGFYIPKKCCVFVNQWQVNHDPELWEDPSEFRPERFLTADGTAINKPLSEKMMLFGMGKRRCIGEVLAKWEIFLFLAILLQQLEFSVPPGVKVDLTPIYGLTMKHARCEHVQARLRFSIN
Summary of the method: (§1)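 Test compounds, 10-point 1:1 serial dilutions in NADPH-regenerating cofactor mix, were preincubated 10 min at 37° C before recombinant enzyme and fluorogenic substrate reactions at 37° C (CYP1A2 15 min; CYP2C9 45 min; CYP2C19, 2D6 30 min). Product fluorescence was read at 409 ex with 460 em (1A2, 2C19) or 530 em (2C9, 2D6), and IC50 fitted from signal versus concentration.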

CYP3A4(BQ) = CYP3A4(BQ) (Homo sapiens, UniProt P08684); assay: CYP3A4(BQ) inhibition; format: in vitro ADME; settings: CYP3A4, substrate BQ; read-out: Cyp IC50 3A4(BQ)
Sequence of CYP3A4(BQ) (P08684 whole entry): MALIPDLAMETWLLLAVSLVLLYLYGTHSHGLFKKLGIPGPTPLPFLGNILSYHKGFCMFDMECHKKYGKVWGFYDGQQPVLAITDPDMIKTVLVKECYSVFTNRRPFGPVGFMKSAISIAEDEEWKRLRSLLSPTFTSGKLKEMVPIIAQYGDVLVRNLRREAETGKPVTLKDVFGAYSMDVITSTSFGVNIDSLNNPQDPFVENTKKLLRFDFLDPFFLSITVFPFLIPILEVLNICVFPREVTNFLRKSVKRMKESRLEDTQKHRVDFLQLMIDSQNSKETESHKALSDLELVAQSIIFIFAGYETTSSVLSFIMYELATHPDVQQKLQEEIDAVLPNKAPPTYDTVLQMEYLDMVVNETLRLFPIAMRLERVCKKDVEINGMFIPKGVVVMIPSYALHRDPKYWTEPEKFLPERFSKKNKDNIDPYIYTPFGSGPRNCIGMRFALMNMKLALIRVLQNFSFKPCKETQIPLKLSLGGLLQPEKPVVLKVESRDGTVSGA
Summary of the method: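 Inhibition of human CYP3A4 (BQ substrate) was measured by fluorescence, since blocking metabolism of a known substrate lowers the fluorescent product signal. Compounds dissolved in DMSO at 100 mM were diluted into acetonitrile and then into NADPH regeneration cofactor mix, serially diluted 1:1 across 10 points, and preincubated in 384 well plates for 10 minutes at 37° C.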

[1] = Relative solubility by turbidity in aqueous buffers (pH 1.5, 4.5, 6.8, 7.4); format: physicochemical; settings: for turbidity threshold (L, M, H) 1.4: pH 1.5 (SGF); for turbidity threshold (L, M, H) 4.5: pH 4.5 (SIF); for turbidity threshold (L, M, H) 6.8: pH 6.8 (SIF); for turbidity threshold (L, M, H) 7.4: pH 7.4 (HEPES)
Summary of the method: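 Twofold DMSO dilutions of a 25 mM stock were spiked into SGF (0.5M NaCl, pH 1.5), SIF (0.05M NaH2PO4, pH 4.5 and 6.8) or HEPES buffer (10 mM HEPES, 150 mM NaCl, pH 7.4). Absorbance was read at 490, 535 and 650 nm. The endpoint is the concentration crossing O.D. 0.01, averaged across wavelengths.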

Fms kinase = Fms kinase (Homo sapiens, UniProt P07333); assay: Fms kinase biochemical activity assay (AlphaScreen, biotin-(E4Y)10 phosphorylation); settings: 100 μM ATP; read-out: Biochemical Inhibition IC50 Fms
Sequence of Fms kinase (P07333 20-972): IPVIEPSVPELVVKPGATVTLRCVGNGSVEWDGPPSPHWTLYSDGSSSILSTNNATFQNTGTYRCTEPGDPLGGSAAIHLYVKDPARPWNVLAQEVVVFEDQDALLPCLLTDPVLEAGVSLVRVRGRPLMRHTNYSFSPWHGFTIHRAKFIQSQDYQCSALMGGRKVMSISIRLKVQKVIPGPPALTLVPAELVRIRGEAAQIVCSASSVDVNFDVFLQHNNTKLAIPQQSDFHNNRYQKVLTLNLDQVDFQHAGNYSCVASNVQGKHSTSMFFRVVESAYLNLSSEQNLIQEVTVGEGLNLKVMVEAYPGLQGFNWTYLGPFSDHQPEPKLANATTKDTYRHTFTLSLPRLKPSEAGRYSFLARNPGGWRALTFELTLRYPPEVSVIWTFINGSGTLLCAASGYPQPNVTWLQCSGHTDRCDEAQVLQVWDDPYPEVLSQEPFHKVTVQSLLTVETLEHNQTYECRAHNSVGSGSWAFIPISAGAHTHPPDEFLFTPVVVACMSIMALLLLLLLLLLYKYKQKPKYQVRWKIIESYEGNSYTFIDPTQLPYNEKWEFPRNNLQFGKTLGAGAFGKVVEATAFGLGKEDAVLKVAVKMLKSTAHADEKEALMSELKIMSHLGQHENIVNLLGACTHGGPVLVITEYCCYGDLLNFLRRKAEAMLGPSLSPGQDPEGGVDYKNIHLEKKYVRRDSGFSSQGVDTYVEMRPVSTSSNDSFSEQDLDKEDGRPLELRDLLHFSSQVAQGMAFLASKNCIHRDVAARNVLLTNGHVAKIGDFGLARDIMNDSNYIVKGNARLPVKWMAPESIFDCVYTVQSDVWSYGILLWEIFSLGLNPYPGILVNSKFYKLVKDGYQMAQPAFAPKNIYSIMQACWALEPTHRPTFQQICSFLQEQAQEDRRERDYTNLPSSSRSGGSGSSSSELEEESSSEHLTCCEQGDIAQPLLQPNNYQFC
Summary of the method: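 Fms kinase (1 ng/well) phosphorylating 30 nM biotin-(E4Y)10 with 100 μM ATP in 25 mM Hepes pH 7.5, MgCl2/MnCl2, 5% DMSO, 20 min at 30 °C. Phosphotyrosine detected by AlphaScreen streptavidin donor and PY20 acceptor beads; IC50 from signal versus compound concentration.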

CYP2D6 = CYP2D6 (Homo sapiens, UniProt P10635); assay: CYP2D6 inhibition (fluorescent substrate AMMC); format: in vitro ADME; settings: read-out: Cyp IC50 2D6
Sequence of CYP2D6 (P10635 whole entry): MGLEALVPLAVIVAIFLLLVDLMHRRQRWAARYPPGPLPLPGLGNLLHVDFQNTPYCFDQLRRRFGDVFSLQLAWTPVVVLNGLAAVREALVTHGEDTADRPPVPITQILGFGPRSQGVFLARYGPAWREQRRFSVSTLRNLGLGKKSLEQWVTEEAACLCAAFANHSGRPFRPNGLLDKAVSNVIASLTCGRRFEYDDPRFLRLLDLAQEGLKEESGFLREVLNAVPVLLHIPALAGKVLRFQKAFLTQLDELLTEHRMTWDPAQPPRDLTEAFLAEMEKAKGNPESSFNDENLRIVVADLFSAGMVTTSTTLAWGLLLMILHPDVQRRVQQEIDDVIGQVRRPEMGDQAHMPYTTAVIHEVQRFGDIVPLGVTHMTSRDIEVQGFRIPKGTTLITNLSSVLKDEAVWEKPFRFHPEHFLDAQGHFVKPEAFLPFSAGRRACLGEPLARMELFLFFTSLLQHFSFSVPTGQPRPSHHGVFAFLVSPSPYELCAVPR
Summary of the method: as §1

IC50 (CYP1A2) [µM] | IC50 (CYP3A4(BQ)) [µM] | IC50 (Fms kinase) [µM] | IC50 (CYP2D6) [µM] | SMILES | turbidity threshold (L, M, H) 1.4 [1] | turbidity threshold (L, M, H) 4.5 [1] | turbidity threshold (L, M, H) 6.8 [1] | turbidity threshold (L, M, H) 7.4 [1]
> 10 | > 10 | < 0.01 | > 10 | COCCCNc1ncnc2[nH]cc(C(=O)c3ccc(Nc4ccc(OC)nc4)nc3F)c12 [Compound P-4079, [2-fluoro-6-[(6-methoxy-3-pyridyl)amino]-3-pyridyl]-[4-(3-methoxypropylamino)-7H-pyrrolo[2,3-d]pyrimidin-5-yl]methanone] | H (high solubility if the threshold concentration is >250 μm) | M (moderate solubility if the threshold concentration is 31.3 μM to 250 μM) | M (moderate solubility if the threshold concentration is 31.3 μM to 250 μM) | M (moderate solubility if the threshold concentration is 31.3 μM to 250 μM)
> 10 | > 10 | < 0.01 | > 10 | CCCCNc1ncnc2[nH]cc(C(=O)c3ccc(Nc4ccc(OC)nc4)nc3F)c12 [Compound P-4080, [4-(butylamino)-7H-pyrrolo[2,3-d]pyrimidin-5-yl]-[2-fluoro-6-[(6-methoxy-3-pyridyl)amino]-3-pyridyl]methanone] | M (moderate solubility if the threshold concentration is 31.3 μM to 250 μM) | M (moderate solubility if the threshold concentration is 31.3 μM to 250 μM) | H (high solubility if the threshold concentration is >250 μm) | M (moderate solubility if the threshold concentration is 31.3 μM to 250 μM)
> 10 | > 10 | < 0.01 | > 10 | COc1ccc(Nc2ccc(C(=O)c3c[nH]c4ncnc(NCC(F)(F)F)c34)c(F)n2)cn1 [Compound P-4084, [2-fluoro-6-[(6-methoxy-3-pyridyl)amino]-3-pyridyl]-[4-(2,2,2-trifluoroethylamino)-7H-pyrrolo[2,3-d]pyrimidin-5-yl]methanone] | M (moderate solubility if the threshold concentration is 31.3 μM to 250 μM) | M (moderate solubility if the threshold concentration is 31.3 μM to 250 μM) | M (moderate solubility if the threshold concentration is 31.3 μM to 250 μM) | H (high solubility if the threshold concentration is >250 μm)
> 10 | > 10 | < 0.1 | > 10 | O=C(c1ccc(NC2CCC(F)(F)CC2)nc1)c1c[nH]c2ncnc(NC3CC3)c12 [Compound P-4088, [4-(cyclopropylamino)-7H-pyrrolo[2,3-d]pyrimidin-5-yl]-[6-[(4,4-difluorocyclohexyl)amino]-3-pyridyl]methanone] | H (high solubility if the threshold concentration is >250 μm) | M (moderate solubility if the threshold concentration is 31.3 μM to 250 μM) | M (moderate solubility if the threshold concentration is 31.3 μM to 250 μM) | M (moderate solubility if the threshold concentration is 31.3 μM to 250 μM)
> 10 | > 10 | < 0.1 | > 10 | CNc1ncnc2[nH]cc(C(=O)c3ccc(NC4CCC(F)(F)CC4)nc3)c12 [Compound P-4089, [6-[(4,4-difluorocyclohexyl)amino]-3-pyridyl]-[4-(methylamino)-7H-pyrrolo[2,3-d]pyrimidin-5-yl]methanone] | H (high solubility if the threshold concentration is >250 μm) | M (moderate solubility if the threshold concentration is 31.3 μM to 250 μM) | M (moderate solubility if the threshold concentration is 31.3 μM to 250 μM) | M (moderate solubility if the threshold concentration is 31.3 μM to 250 μM)

The remaining lines, values behind:

SMILES | IC50 (CYP1A2) [µM] | IC50 (CYP3A4(BQ)) [µM] | IC50 (Fms kinase) [µM] | IC50 (CYP2D6) [µM] | turbidity threshold (L, M, H) 1.4 [1] | turbidity threshold (L, M, H) 4.5 [1] | turbidity threshold (L, M, H) 6.8 [1] | turbidity threshold (L, M, H) 7.4 [1]
CCNc1ncnc2[nH]cc(C(=O)c3ccc(Nc4ccc(OC)nc4)nc3F)c12 [Compound P-4081, [4-(ethylamino)-7H-pyrrolo[2,3-d]pyrimidin-5-yl]-[2-fluoro-6-[(6-methoxy-3-pyridyl)amino]-3-pyridyl]methanone] | > 10 | > 10 | < 0.01 | > 10 | H (high solubility if the threshold concentration is >250 μm) | M (moderate solubility if the threshold concentration is 31.3 μM to 250 μM) | H (high solubility if the threshold concentration is >250 μm) | M (moderate solubility if the threshold concentration is 31.3 μM to 250 μM)
COc1ccc(Nc2ccc(C(=O)c3c[nH]c4ncnc(NC5CCCCC5)c34)c(F)n2)cn1 [Compound P-4082, [4-(cyclohexylamino)-7H-pyrrolo[2,3-d]pyrimidin-5-yl]-[2-fluoro-6-[(6-methoxy-3-pyridyl)amino]-3-pyridyl]methanone] | > 10 | 5 to 10 | < 0.1 | > 10 | M (moderate solubility if the threshold concentration is 31.3 μM to 250 μM) | L (low solubility if the threshold concentration is <31.3 μM) | L (low solubility if the threshold concentration is <31.3 μM) | L (low solubility if the threshold concentration is <31.3 μM)
CNc1ncnc2[nH]cc(C(=O)c3ccc(Nc4ccc(OC)nc4)nc3F)c12 [Compound P-4083, [2-fluoro-6-[(6-methoxy-3-pyridyl)amino]-3-pyridyl]-[4-(methylamino)-7H-pyrrolo[2,3-d]pyrimidin-5-yl]methanone] | > 10 | > 10 | < 0.01 | > 10 | M (moderate solubility if the threshold concentration is 31.3 μM to 250 μM) | M (moderate solubility if the threshold concentration is 31.3 μM to 250 μM) | M (moderate solubility if the threshold concentration is 31.3 μM to 250 μM) | H (high solubility if the threshold concentration is >250 μm)
O=C(c1ccc(NC2CCC(F)(F)CC2)nc1)c1c[nH]c2ncnc(NCC(F)(F)F)c12 [Compound P-4087, [6-[(4,4-difluorocyclohexyl)amino]-3-pyridyl]-[4-(2,2,2-trifluoroethylamino)-7H-pyrrolo[2,3-d]pyrimidin-5-yl]methanone] | > 10 | > 10 | < 0.1 | > 10 | H (high solubility if the threshold concentration is >250 μm) | M (moderate solubility if the threshold concentration is 31.3 μM to 250 μM) | M (moderate solubility if the threshold concentration is 31.3 μM to 250 μM) | M (moderate solubility if the threshold concentration is 31.3 μM to 250 μM)
